Among the test systems are CCRF-CEM leukemia; 786-0 renal; OVCAR-4 ovarian; ACHN renal; TK-10 renal; MDA-MB-231 breast; SNB-19 CNS; RXF 393 renal; NCI-H23 lung; NCI-H460 lung.
Assay in all cases: growth of human tumour cells (NCI), 48 h

These results are taken from PubChem BioAssay (NCI).

SMILES strings stand for the structures.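 These data come from cells grown in 96-well plates and exposed to compound for 48 hours at five concentrations. Here, GI50 denotes the concentration required for 50% inhibition of growth. TGI denotes the concentration required for complete inhibition of growth.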

With `O=C(/C=C/OC(=O)c1cccc(Cl)c1)c1ccc(Cl)cc1`, the GI50 in the assay with CCRF-CEM leukemia is 37.5 µM; with 786-0 renal it was > 91.7 µM; with OVCAR-4 ovarian, > 72.5 µM; in the assay with ACHN renal, 52.3 µM; in the assay with TK-10 renal, 32.7 µM; in the assay with MDA-MB-231 breast, 52.2 µM. Further, the GI50 in the assay on SNB-19 CNS was > 56.5 µM; in the assay with RXF 393 renal, > 100 µM; in the assay with NCI-H23 lung it was 41.7 µM; in the assay on NCI-H460 lung, > 100 µM. For the same molecule, the TGI in the assay with CCRF-CEM leukemia, with 786-0 renal, in the assay with OVCAR-4 ovarian, in the assay with ACHN renal, in the assay with TK-10 renal and in the assay on MDA-MB-231 breast was > 100 µM throughout. Moreover, the TGI in the assay on SNB-19 CNS, with RXF 393 renal, in the assay with NCI-H23 lung and in the assay with NCI-H460 lung was > 100 µM in each case.

With `COc1cnc2c(c1)C(=O)c1c-2n(CCCN2CCNCC2)c(=O)c2cc([N+](=O)[O-])ccc12`, the GI50 with CCRF-CEM leukemia was 0.143 µM; with 786-0 renal, 0.209 µM; with OVCAR-4 ovarian it was 1.24 µM; in the assay on ACHN renal it was 0.117 µM; with TK-10 renal it was 1.11 µM; in the assay on MDA-MB-231 breast it was 1.47 µM. Also, the GI50 was 0.21 µM with SNB-19 CNS and 0.401 µM in the assay with RXF 393 renal. Also, the TGI in the assay on CCRF-CEM leukemia stood at 1.78 µM; with 786-0 renal it was 1.16 µM; with OVCAR-4 ovarian it was 3.01 µM; in the assay on ACHN renal it was 1.22 µM; in the assay with TK-10 renal, 2.39 µM; in the assay on MDA-MB-231 breast it was 3.33 µM. Also, the TGI is 2.1 µM in the assay on SNB-19 CNS and 1.94 µM in the assay on RXF 393 renal.

With `Cc1ccc2nc(NC(=O)/C(=N\NC(=S)NN)C3C(=O)NC(=S)NC3=O)sc2c1`, the TGI in the assay with CCRF-CEM leukemia, in the assay on 786-0 renal, in the assay on OVCAR-4 ovarian, in the assay with ACHN renal, with TK-10 renal and in the assay on SNB-19 CNS was > 100 µM each time. The TGI in the assay with RXF 393 renal, with NCI-H23 lung and in the assay on NCI-H460 lung was > 100 µM in each case.

In the case of `CCOC(=O)C(C(O)c1ccc([N+](=O)[O-])cc1)P(=O)(OCC)OCC` (centres undefined), the TGI in the assay on CCRF-CEM leukemia, with 786-0 renal, in the assay with OVCAR-4 ovarian, in the assay with ACHN renal, in the assay with TK-10 renal and in the assay on SNB-19 CNS was > 100 µM throughout. Moreover, the TGI in the assay with RXF 393 renal, in the assay on NCI-H23 lung and in the assay on NCI-H460 lung was > 100 µM in each case.

Take `CN1CCN(Cc2cc(NC(=O)c3cccc(C#Cc4cccc5[nH]nc(N)c45)c3)cc(C(F)(F)F)c2)CC1`: the GI50 with 786-0 renal is 1.91 µM; in the assay on OVCAR-4 ovarian, 1.59 µM; with ACHN renal it was 1.66 µM; with TK-10 renal, 1.96 µM; with MDA-MB-231 breast it was 1.38 µM; with RXF 393 renal, 1.46 µM. Besides, the values for the GI50 in the assay with NCI-H23 lung and in the assay on NCI-H460 lung were 1.72 µM and 1.67 µM, respectively. Further, the TGI worked out at 3.39 µM in the assay with 786-0 renal; 3.97 µM in the assay on OVCAR-4 ovarian; 3.02 µM in the assay with ACHN renal; 3.38 µM in the assay on TK-10 renal; 2.73 µM in the assay with MDA-MB-231 breast; 2.83 µM in the assay on RXF 393 renal. Moreover, the TGI came to 3.4 µM in the assay on NCI-H23 lung and 3.06 µM in the assay with NCI-H460 lung.

As to `COc1ccc2nc(NC(=O)C(=O)NNC(=O)c3ccncc3)sc2c1`, the TGI in the assay on CCRF-CEM leukemia, with 786-0 renal, in the assay on OVCAR-4 ovarian, in the assay on ACHN renal, in the assay on TK-10 renal and in the assay with SNB-19 CNS was > 100 µM throughout. Further, the TGI in the assay with RXF 393 renal, in the assay with NCI-H23 lung and in the assay with NCI-H460 lung was > 100 µM in each case.

Regarding `C/C(=N\NC(=O)CC(=O)N(C(=O)c1ccc(Cl)cc1)c1ccc(C)cc1)c1ccccc1O`, the TGI was > 100 µM in the assay on CCRF-CEM leukemia; > 100 µM in the assay on 786-0 renal; 13.7 µM with OVCAR-4 ovarian; > 100 µM with ACHN renal; > 100 µM in the assay on TK-10 renal; > 100 µM with SNB-19 CNS. Further, the TGI in the assay with RXF 393 renal, in the assay with NCI-H23 lung and in the assay with NCI-H460 lung was > 100 µM throughout.

Consider `O=C1NC(c2cccc(OCc3ccccc3)c2)Nc2ccccc21` (centres undefined), for which the TGI in the assay on CCRF-CEM leukemia was 3.99 µM; in the assay with 786-0 renal it was 38.8 µM; in the assay on OVCAR-4 ovarian, > 100 µM; in the assay with ACHN renal, 28.7 µM; with TK-10 renal, > 75.7 µM; with MDA-MB-231 breast, 4.69 µM. Besides, the TGI in the assay on SNB-19 CNS is > 100 µM; in the assay on NCI-H23 lung it was > 100 µM; in the assay with NCI-H460 lung, 22.9 µM.

With `COc1cccc(Nc2nccc(-c3cnn4ncccc34)n2)c1`, the GI50 was 0.0723 µM in the assay on CCRF-CEM leukemia; 0.0871 µM with 786-0 renal; 0.0903 µM in the assay on OVCAR-4 ovarian; 0.0456 µM in the assay on ACHN renal; 0.0839 µM in the assay with MDA-MB-231 breast; 0.0833 µM with SNB-19 CNS. The GI50 in the assay with RXF 393 renal was 0.0449 µM; in the assay with NCI-H23 lung, 0.0532 µM; with NCI-H460 lung, 0.0754 µM. The TGI is > 25 µM in the assay on 786-0 renal; 17.8 µM with OVCAR-4 ovarian; > 25 µM in the assay with ACHN renal; > 25 µM with MDA-MB-231 breast; > 25 µM with SNB-19 CNS; 0.108 µM in the assay with RXF 393 renal. The values for the TGI in the assay with NCI-H23 lung and with NCI-H460 lung were 0.201 µM and > 25 µM, respectively.

Consider `O=C(O)CCC(C(=O)O)N1C(=O)C2C3CCC(C3)C2C1=O` (centres undefined), for which the TGI in the assay on 786-0 renal, with OVCAR-4 ovarian, in the assay with ACHN renal, in the assay with TK-10 renal, in the assay on MDA-MB-231 breast and in the assay on SNB-19 CNS was > 100 µM in each case. Moreover, the TGI with RXF 393 renal, in the assay with NCI-H23 lung and in the assay with NCI-H460 lung was > 100 µM throughout.

Consider `COCCn1cc(-c2csc(-c3c[nH]c4ccc(Br)cc34)n2)c2cccnc21`, for which the GI50 in the assay with 786-0 renal is 4.03 µM; with OVCAR-4 ovarian, 2.74 µM; in the assay on ACHN renal, 3.04 µM; in the assay with MDA-MB-231 breast, 2.65 µM; in the assay on SNB-19 CNS it was 12.2 µM; in the assay on RXF 393 renal it was 3.3 µM. Further, the GI50 was 3.21 µM with NCI-H23 lung and 3.07 µM in the assay on NCI-H460 lung. Further, the TGI in the assay with 786-0 renal is > 100 µM; in the assay with OVCAR-4 ovarian it was > 100 µM; with ACHN renal, > 100 µM; in the assay on MDA-MB-231 breast, > 100 µM; with SNB-19 CNS, > 100 µM; in the assay on RXF 393 renal it was 11.2 µM. Moreover, the TGI in the assay on NCI-H23 lung and in the assay on NCI-H460 lung was > 100 µM each time.
